In publication PMC11577759, “The structure of lipopeptides impacts their antiviral activity and mode of action against SARS-CoV-2 in vitro” (Applied and Environmental Microbiology, 2024):
Where two headings read alike, the source gives them in different places. Marks after values point to notes of the source that are not given here.

Tests used:
SARS-CoV-2 [1] = conditions: surfactin 35, WLIP 20, fengycin 50, caspofungin 100 µg/mL; 100% = untreated infected cells at 37°C
SARS-CoV-2 [2] = format: cell-based; conditions: cells pre-treated, surfactin 35, WLIP 20, fengycin 50, caspofungin 100 µg/mL
SARS-CoV-2 [3] = test: Binding inhibition: pre-treatment of SARS-CoV-2 and incubation on cells; format: cell-based; conditions: virus pre-treated, surfactin 35, WLIP 20, fengycin 50, caspofungin 100 µg/mL
SARS-CoV-2 [4] = test: Replication / antiviral assay, viral RNA in supernatant by RT-qPCR; format: cell-based; conditions: for Reduction of viral RNA concentration: serum diluted five times, vs infected cells (Fig. 6)
Vero E6 cells = test: Cytotoxicity, CyQUANT XTT cell viability assay; format: cell-based, Chlorocebus sp.; conditions: 72 h
Method: Chlorocebus sp. kidney epithelial cells (Vero E6; ATCC VERO C1008) were cultured in Dulbecco’s Modified Eagle medium (DMEM) High Glucose w/ Stable Glutamine w/ Sodium Pyruvate (VWR, USA) supplemented with 2% (vol/vol) of decomplemented fetal bovine serum (FBS, Biowest, France) and 1% (vol/vol) Penicillin-Streptomycin (VWR, USA). The cells were grown at 37°C in a humidified 5% CO2 atmosphere. Cells were routinely passaged when they reached 100% confluence and were passaged until passage 15.
The cytotoxic activity of the lipopeptides was assessed using a CyQUANT XTT Cell Viability Assay (Thermo Fisher Scientific) according to the manufacturer’s instructions. […] The cells were then incubated for 72 h at 37°C. The kit was then used following the manufacturer’s instructions, and the plates were read at 450 nm and 660 nm using a Multiskan GO Microplate Spectrophotometer (Thermo Fisher Scientific). The percentage of viable cells was calculated as (AT450 − AT660 − AB450) / (AC450 − AC660) × 100%, where AT450, AT660, AB450, AC450, and AC660 represent the absorbance of the tested well at 450 nm, of the tested well at 660 nm, of the blank (only medium) at 450 nm, of the control cells at 450 nm, and of the control cells at 660 nm, respectively. One hundred percent viability corresponds to the viability of uninfected cells. DMSO concentrations ranging from 0.5% (vol/vol) to 0.001% (vol/vol) were used as a negative control for the assay. Every sample was tested in triplicate.

SARS-CoV-2 [5] = test: Binding inhibition: pre-infection treatment of cells; format: cell-based; conditions: cells pre-treated and cleared from unbound lipopeptide before infection; fengycin 50 µg/mL
Method: For the binding inhibition assays, four different conditions (Fig. 1) were tested to assess the potential of lipopeptides to inhibit the attachment of SARS-CoV-2 to cells in different settings. […] In these assays, SARS-CoV-2 was used at an MOI of 10, and every sample was tested in triplicate. Some steps were performed at 4°C to rigidify the cellular and viral membranes, allowing the virus to bind to the cells but not fuse with the […], as detailed below.
The cell supernatant was discarded, and the lipopeptides were added to the cells, which were subsequently incubated for 1 h at 37°C with gentle agitation. […] The viral stock was then added to the cells, which were subsequently incubated on ice for 1 h with gentle agitation.

Fengycin was tested, and the Fusion percentage (SARS-CoV-2 [1]) was 17.2%, the “Binding percentage of SARS-CoV-2 to cells” value (shortened to “Binding percentage”) (SARS-CoV-2 [2]) was 11.3% and the “Binding percentage” value (SARS-CoV-2 [3]) was 21.7%. The “Reduction of viral RNA concentration” value (SARS-CoV-2 [4]; 24 h pi, surfactin 35, WLIP 20, fengycin 50, caspofungin 100 µg/mL) was “did not reduce the RNA concentration”, the “Reduction of viral RNA concentration” value (SARS-CoV-2 [4]; 72 h pi, surfactin 35, WLIP 20, fengycin 50, caspofungin 100 µg/mL) was 0.6 log and the “EC50 (half maximal effective concentration)” value (SARS-CoV-2 [4]; SARS-CoV-2 MOI 0.01, Vero E6, viral RNA at 72 h pi by RT-qPCR, mean (standard deviation)) was 71.7 (20.7) µg/mL. The “Reduction in viral RNA” value (SARS-CoV-2 [4]; surfactin 35, WLIP 20, fengycin 50, caspofungin 100 µg/mL, 72 h (Fig. 5)) was 3.2 log, the Cell viability (Vero E6 cells; 100 µg/mL, Vero E6) was 64.1% and the “IC50 (half maximal inhibitory concentration, cytotoxicity)” value (Vero E6 cells; Vero E6 cells, XTT, mean (standard deviation), fengycin and caspofungin determined at higher concentrations in a subsequent experiment) was 295.3 (28.3)^b µg/mL. For the same substance, the Cell viability (Vero E6 cells; surfactin 35, WLIP 20, fengycin 50, caspofungin 100 µg/mL, Vero E6 (Fig. 5)) was 89.9% and the “Binding percentage” value (SARS-CoV-2 [5]) was 54%.
